Measurements from patent US11180516B2, “Phosphine transition metal complex, method for producing same, and anticancer agent” (Nippon Chemical Industrial Co., Ltd., priority 2018, dated 2021).

Experiments:
[1] = tested on: A549 (human lung cancer cells); assay: Anticancer activity, WST-8 viable cell assay, A549; assay type: cell-based; settings: 48 hours culture, mean of three experiments, read-out: IC50 (50% cell growth inhibitory concentration)
Description: (§1) As a control, cisplatin was tested in the same way.
(§2) A549 (human lung cancer cells), NCI-H460 (human lung cancer cells), MKN45 (human gastric cancer cells), NCI-N87 (human gastric cancer cells), A2780 (human ovarian cancer cells), A2780cis (human ovarian cancer cells, cisplatin-resistant cells) were used as cancer cells, and cultured in Roswell Park Memorial Institute medium (RPMI1640) supplemented with 10 volume % fetal bovine serum and 100 Units/mL penicillin and 100 μg/mL streptomycin under 5 volume % carbon dioxide atmosphere by wet incubation at 37° C.
(§3) Cells were washed with phosphate buffered saline (PBS), the cell count was calculated, and then 5×10^4 cells/ml suspension was prepared using the same medium. The suspension was added to a sterile 96-well microplate at a density of 2500 cells/well.
(§4) Thereafter, viable cell counts were evaluated by WST-8 assay. In other words, a solution of water-soluble tetrazolium salt WST-8 was added, and then the cells were cultured in an incubator for 1 hour. Absorbance at 450 nm of water-soluble formazan generated by enzymatic activity of mitochondria in cells was measured with a microplate reader (Spectra Max PLUS; Molecular Devices). This was evaluated as viable cell counts, and 50% cell growth inhibitory concentration (IC50) was calculated. It should be noted that the mean of the values of three experiments performed in the same way was adopted for the calculation of IC50 value.

[2] = tested on: NCI-H460 (human lung cancer cells); assay: Anticancer activity, WST-8 viable cell assay, NCI-H460; assay type: cell-based; settings: 48 hours culture, mean of three experiments, read-out: IC50 (50% cell growth inhibitory concentration)
Description: as §1, §2, §3, §4

[3] = tested on: MKN45 (human gastric cancer cells); assay: Anticancer activity, WST-8 viable cell assay, MKN45; assay type: cell-based; settings: 48 hours culture, mean of three experiments, read-out: IC50 (50% cell growth inhibitory concentration)
Description: as §1, §2, §3, §4

[4] = tested on: NCI-N87 (human gastric cancer cells); assay: Anticancer activity, WST-8 viable cell assay, NCI-N87; assay type: cell-based; settings: 48 hours culture, mean of three experiments, read-out: IC50 (50% cell growth inhibitory concentration)
Description: as §1, §2, §3, §4

[5] = tested on: A2780 (human ovarian cancer cells); assay: Anticancer activity, WST-8 viable cell assay, A2780; assay type: cell-based; settings: 48 hours culture, mean of three experiments, read-out: IC50 (50% cell growth inhibitory concentration)
Description: as §1, §2, §3, §4

[6] = tested on: A2780cis (human ovarian cancer cells, cisplatin-resistant cells); assay: Anticancer activity, WST-8 viable cell assay, A2780cis; assay type: cell-based; settings: 48 hours culture, mean of three experiments, read-out: IC50 (50% cell growth inhibitory concentration)
Description: as §1, §2, §3, §4

[7] = Solubility test in aqueous surfactant solution (HPLC); settings: 150 μL surfactant (Tween 80:propylene glycol 2:1) + 850 μL 5% by mass aqueous glucose solution
Description: The solubility was determined by the following HPLC analysis.
For the HPLC analyzer, Prominence HPLC system (LC-20AD, Shimadzu Corporation) was used. For the detector, UV detector SPD-20A (Shimadzu Corporation, detection wavelength 249 nm) was used, and for the column, XR-ODS (3 mm i.d.×100 mm, particle diameter 2.2 μm) manufactured by Shimadzu Corporation was used. The mobile phase was methanol:water:TFA=90:10:0.05 (v/v), the column temperature was 40° C., and the flow rate was 0.5 mL/min.
Each of the weighed samples was placed in 150 μL of surfactants, and the mixture was stirred sufficiently. Then, 850 μL of 5% by mass aqueous glucose solution was added, and the mixture was further stirred at room temperature (25° C.). This solution was passed through a 0.2 μm membrane filter, and the filtrate was diluted 50-fold by volume with methanol:water (9:1) to obtain a preparation solution for HPLC analysis.
The prepared samples were transferred to vials, and set in an autosampler. The analysis was performed by injecting each sample by 1 μL.
Based on the relationship between the weight of the weighed sample and the area of the peak in the obtained chromatogram, the solubility of the phosphine transition metal complex was evaluated.

Row | Compound | IC50 [1] [µM] | IC50 [2] [µM] | IC50 [3] [µM] | IC50 [4] [µM] | IC50 [5] [µM] | IC50 [6] [µM] | Solubility (25° C.) [7] [mg/mL]
1 | N.N.[Cl][Pt][Cl] [Cisplatin, cisplatin, reference compound] | 6 | 3.3 | 5.2 | 42 | 2.8 | 28 | –
2 | CP(c1nc2ccccc2nc1P(C)C(C)(C)C)C(C)(C)C.CP(c1nc2ccccc2nc1P(C)C(C)(C)C)C(C)(C)C.[Au+].[Cl-] (stereo not shown) [Comparative Example 1, bis(2,3-bis(tert-butylmethylphosphino)quinoxaline)gold(I) chloride] | – | – | – | – | – | – | 25.5
3 | CP(c1ccccc1P(C)C(C)(C)C)C(C)(C)C.CP(c1ccccc1P(C)C(C)(C)C)C(C)(C)C.[Au+].[Cl-] [Example 2, bis[(S,S)-1,2-bis(t-butylmethylphosphino)benzene]gold(I) chloride] | 0.58 | 0.69 | 0.53 | 2.1 | 1.1 | 0.56 | –
4 | bis[(R,R)-1,2-bis(t-butylmethylphosphino)benzene]gold(I) chloride [Example 1] | 0.066 | 0.25 | 0.25 | 1.4 | 0.28 | 0.095 | –
